Assay results from patent publication US20250295660A1, “METHODS OF TREATING NF1-MUTANT TUMORS USING LSD1 INHIBITORS” (ORYZON GENOMICS, S.A., priority 2022, published 2025).
Each block holds one compound with its values, some of them ahead of it.

Legend:
Type in all cases: cell-based
[1] = system: MOLM13 (AML) cell line; assay: Cell viability of NF1-mutant tumor cell line MOLM13 (MTT or AlamarBlue); conditions: 4 days treatment; for EC50: Homo sapiens, MOLM-13, 96 h, NF1 p. E1720D
Experimental: (§1) Mycoplasma-free tumor cell lines from different tumor types carrying mutations in the NF1 gene (see Table 1) were seeded in 50 μl/well of complete medium (as described in Table 2, all reagents from Thermo Fisher) in 96-well plates at the optimal cell density to ensure log-phase growth throughout the duration of the experiment (see Table 2). The day after seeding, 50 μl of medium containing 9 serial dilutions (1:3) of 2×-concentrated iadademstat (LSD1 inhibitor; used as the dihydrochloride salt) were added to the cells to obtain 100 μl of cells treated with 1×-concentrated compound at each dilution. Additionally, the effect of other LSD1 inhibitors, i.e. bomedemstat (bis-tosylate salt) and pulrodemstat (besylate salt), was likewise evaluated in a subset of these tumor cell lines (sNF96.2, sNF02.2, MOLM13 and NCIH510A).
(§2) Each experimental condition was tested in technical triplicates, including medium-only wells and vehicle-treated controls for background correction and normalization, respectively. After treatment, cells were incubated at 37° C. in a humidified and controlled 5% CO2 atmosphere (see Table 2 for duration of treatment according to the growth curve of each cell line and number of cells seeded) and compound and medium refreshment was performed by adding 50 μl of medium supplemented with 1×-concentrated compound at each corresponding dilution when the duration of the treatment exceeded 4 days of drug incubation (see Table 2). After treatment, cell viability was evaluated using either the MTT assay (Sigma-Aldrich) or AlamarBlue™ Cell viability reagent (Life Technologies), following manufacturer's instructions. Background was calculated as the mean of the values of medium-only controls and subtracted from each data point. The average of background-corrected technical triplicates was calculated and normalized by the mean of vehicle-treated controls (corresponding to 100% of viability). Data were analyzed using GraphPad PRISM® version 9.0.1 (GraphPad Software, Inc., La Jolla, CA/USA) to calculate the best-fitting curves and the EC50 values (corresponding to the concentration of compound at which a half (50%) maximal effect is obtained; lower EC50 values thus indicate greater potency).

[2] = system: sNF02.2 (MPNST) cell line; assay: Cell viability of NF1-mutant tumor cell line sNF02.2 (MTT or AlamarBlue); conditions: 6 days treatment; for EC50: 144 h, NF1 c. 4868A > T
Experimental: as §1, §2

[3] = system: NCIH510A (SCLC) cell line; assay: Cell viability of NF1-mutant tumor cell line NCIH510A (MTT or AlamarBlue); conditions: 10 days treatment; for EC50: Homo sapiens, NCI-H510A, 240 h, NF1 p. D2184G/p. L2618L
Experimental: as §1, §2

[4] = system: RD (rhabdomyosarcoma) cell line; assay: Cell viability of NF1-mutant tumor cell line RD (MTT or AlamarBlue); conditions: 6 days treatment
Experimental: as §1
(§3) Each experimental condition was tested in technical triplicates, including medium-only wells and vehicle-treated controls for background correction and normalization, respectively. […] After treatment, cell viability was evaluated using either the MTT assay (Sigma-Aldrich) or AlamarBlue™ Cell viability reagent (Life Technologies), following manufacturer's instructions. Background was calculated as the mean of the values of medium-only controls and subtracted from each data point. […]

[5] = system: NCIH446 (SCLC) cell line; assay: Cell viability of NF1-mutant tumor cell line NCIH446 (MTT or AlamarBlue); conditions: 10 days treatment
Experimental: as §1, §3

[6] = system: hTERT ipNF95.11b C (plexiform neurofibroma) cell line; assay: Cell viability of NF1-mutant tumor cell line hTERT ipNF95.11b C (MTT or AlamarBlue); conditions: 7 days treatment
Experimental: as §1, §3

[7] = system: sNF96.2 (MPNST) cell line; assay: Cell viability of NF1-mutant tumor cell line sNF96.2 (MTT or AlamarBlue); conditions: 6 days treatment
Experimental: as §1, §3

[8] = system: DAUDI (Burkitt's lymphoma) cell line; assay: Cell viability of NF1-mutant tumor cell line DAUDI (MTT or AlamarBlue); conditions: 4 days treatment
Experimental: as §1, §3

[9] = system: MHHES1 (Ewing's sarcoma) cell line; assay: Cell viability of NF1-mutant tumor cell line MHHES1 (MTT or AlamarBlue); conditions: 6 days treatment
Experimental: as §1, §3

[10] = system: MDAMB231 (TN breast cancer) cell line; assay: Cell viability of NF1-mutant tumor cell line MDAMB231 (MTT or AlamarBlue); conditions: 4 days treatment
Experimental: as §1, §3

[11] = system: hTERT ipnNF95.11c (plexiform neurofibroma) cell line; assay: Cell viability of NF1-mutant tumor cell line hTERT ipnNF95.11c (MTT or AlamarBlue); conditions: 7 days treatment
Experimental: as §1, §3

[12] = system: TC71 (Ewing's sarcoma) cell line; assay: Cell viability of NF1-mutant tumor cell line TC71 (MTT or AlamarBlue); conditions: 6 days treatment
Experimental: as §1, §3

[13] = system: MPNST-NF1-18b (MPNST) cell line; assay: Cell viability of NF1-mutant tumor cell line MPNST-NF1-18b (MTT or AlamarBlue); conditions: 6 days treatment
Experimental: as §1, §3

[14] = system: MOLT4 (ALL) cell line; assay: Cell viability of NF1-mutant tumor cell line MOLT4 (MTT or AlamarBlue); conditions: 10 days treatment
Experimental: as §1, §3

[15] = system: A204 (rhabdoid tumor) cell line; assay: Cell viability of NF1-mutant tumor cell line A204 (MTT or AlamarBlue); conditions: 6 days treatment
Experimental: as §1, §3

- EC50 [1]: 5.38 nM
- EC50 [2]: 0.094 nM
- EC50 [3]: 10.5 nM
Compound: CN1CCN(C(=O)[C@H](CCCN[C@@H]2C[C@H]2c2ccc(F)cc2)NC(=O)c2ccc(-n3ccnn3)cc2)CC1 [Bomedemstat, N-[(2S)-5-{[(1R,2S)-2-(4-fluorophenyl)cyclopropyl]amino}-1-(4-methylpiperazin-1-yl)-1-oxopentan-2-yl]-4-(1H-1,2,3-triazol-1-yl)benzamide]

- EC50 [1]: 0.158 nM
- EC50 [2]: 0.02 nM
- EC50 ([6]; 168 h, NF1 c. 1756delACTA/ LOH): 0.14 nM
- EC50 ([7]; 144 h, NF1 c. 3683delC + LOH): 0.042 nM
- EC50 [3]: 0.16 nM
- EC50 ([11]; 168 h, NF1 c. 1756delACTA): 0.841 nM
- EC50 ([13]; 144 h, NF1 SNV at intron 14 + LOH): 0.025 nM
- EC50 ([14]; Homo sapiens, MOLT-4, 240 h, NF1 p. G1502G/ NS): 0.795 nM
- EC50 ([15]; Homo sapiens, 144 h, NF1 p. L1274F): 0.1 nM
Compound: N[C@H]1CC[C@H](N[C@@H]2C[C@H]2c2ccccc2)CC1 [Iadademstat, (trans)-N1-((1R,2S)-2-phenylcyclopropyl)cyclohexane-1,4-diamine]
- Response (classification according to viability reduction) [4]: Low (low response (viability reduction<15%))
- Response (classification according to viability reduction) [1]: Strong (strong response (viability reduction>30%))
- Response (classification according to viability reduction) [2]: Medium (medium response (viability reduction>15% and <30%))
- Response (classification according to viability reduction) [5]: Low (low response (viability reduction<15%))
- Response (classification according to viability reduction) [6]: Medium (medium response (viability reduction>15% and <30%))
- Response (classification according to viability reduction) [7]: Strong (strong response (viability reduction>30%))
- Response (classification according to viability reduction) [8]: Low (low response (viability reduction<15%))
- Response (classification according to viability reduction) [9]: Low (low response (viability reduction<15%))
- Response (classification according to viability reduction) [10]: Low (low response (viability reduction<15%))
- Response (classification according to viability reduction) [3]: Strong (strong response (viability reduction>30%))
- Response (classification according to viability reduction) [11]: Strong (strong response (viability reduction>30%))
- Response (classification according to viability reduction) [12]: Low (low response (viability reduction<15%))
- Response (classification according to viability reduction) [13]: Strong (strong response (viability reduction>30%))
- Response (classification according to viability reduction) [14]: Strong (strong response (viability reduction>30%))
- Response (classification according to viability reduction) [15]: Strong (strong response (viability reduction>30%))

- EC50 [1]: 0.82 nM
- EC50 [2]: 0.166 nM
- EC50 [3]: 1.73 nM
Compound: COc1ccc(-c2c(-c3ccc(C#N)c(F)c3)nc(N3CCC(N)CC3)n(C)c2=O)cc1F [Pulrodemstat, 4-[2-(4-aminopiperidin-1-yl)-5-(3-fluoro-4-methoxyphenyl)-1-methyl-6-oxo-1,6-dihydropyrimidin-4-yl]-2-fluorobenzonitrile]
